Assay results published in patent EP4438597A1, “2-STYRYLBENZOTHIAZOLE DERIVATIVES AS A-SYNUCLEIN BINDING COMPOUNDS” (Eberhard Karls Universität Tübingen Medizinische Fakultät, priority 2023, dated 2024).

What was measured:
αSYN pathology = molecular target: T1, αSYN pathology (Homo sapiens, UniProt P37840); assay: in vitro autoradiography on human brain slices with αSYN pathology (MSA, PD); assay type: binding
T1 construct: tissue Neurobiobank München (NBM, Munich, Germany); host or cells: post-mortem human brain slices (MSA cerebellum, PD frontal cortex, controls)
Procedure: Post-mortem human brain slices (10 µm thickness) were obtained from and the subject cases were analyzed by the Neurobiobank München (NBM, Munich, Germany), where tissues were collected on the basis of written informed consent according to the guidelines of the ethics committee of the Ludwig-Maximilians-University Munich, Germany (# 345-13). The use of brain tissue samples in this study was approved by the ethics committee of the Faculty of Medicine at the University of Tuebingen (Ethics approval number: 813/2018BO2). Table 1 summarizes the information of the subjects from which samples were obtained and used in the experiment.
For autoradiography, brain slices were thawed for one hour before preincubation in BSA buffer for 25 minutes at room temperature. To determine total binding (TB), brain slices were incubated with the tracer (10 nM [^18F]PFSB, 10 nM [^18F]MFSB). […]
Quantitative data analysis was performed by drawing four regions of interest (ROIs) in relevant areas of the slice and one ROI next to it for background subtraction (imaged 1.8.0_172, National Institute of Health, Bethesda, Maryland, USA) (Schneider, C. A. et al., NIH Image to imaged: 25 years of image analysis; Nat Methods 2012, 9 (7), 671-5). […] The SB disease/SB control ratio was calculated by dividing by the SB in diseased tissues with the respective SB in control tissues.

[1] = in vivo dynamic PET/MR imaging, pharmacokinetic profile; details: healthy wild-type mice, i.v.
Procedure: The animal experiments were performed in compliance to the European directives on the protection and use of laboratory animals (Council Directive 2010/63/UE) and the German animal welfare act with approval from the local authorities (Regierungspräsidium Tuebingen, R3/19G). Three healthy wild-type female C57BU6J mice (20.3 ± 0.9 g; 9 weeks old) purchased from Charles River Laboratories (Sulzbach, Germany) were maintained in a vivarium on a 12:12 hour light dark cycle and were kept at a temperature of 22°C with 40-60% humidity and free access to a standard diet and tap water.
The mice (n = 3) were anaesthetized with 1.5% isoflurane evaporated in 100% oxygen at a flow rate of 0.8 L/min. Body temperature of 37°C was maintained using a feedback temperature control unit. PET imaging studies were performed on Inveon dedicated microPET system (Inveon D-PET, Siemens, Knoxville, TN, USA). Five seconds after the start of PET acquisition, mice were injected intravenously with 9.9 ± 0.6 MBq of [^18F]MFSB (Am = 46.2 ± 2.5 GBq/µmol at time of injection). The one-hour dynamic acquisitions were divided into 39 time frames (12×5 s, 6×10 s, 6×30 s, 5×60 s and 10×300 s). A 13-minute transmission measurement with a cobalt-57 point source was performed for attenuation correction. Subsequently, an anatomical magnetic resonance (MR) scan with a 7 Tesla MR scanner (ClinScan, Bruker BioSpin MRI GmbH, Ettlingen, Germany) using a rat whole-body volume coil and the Paravision software (v6.0.1, Bruker, Ettlingen, Germany) using a T2-weighted Turbo-RARE MRI sequence.
The PET image was reconstructed via the OSEM3D/SP-MAP reconstruction algorithm and coregistered to the whole-body MRI scan. […] Standardized uptake values (SUVs) were calculated as a ratio of the detected activity with injected activity and weight (SUV = (TAC (kBq/cc) / inj. activity (kBq)) * weight (g)).

## [18F]c1ccc2nc(/C=C/c3ccc(N4CCCCC4)cc3)sc2c1 [[^18F]PFSB]
αSYN pathology; mean over MSA brain slices
  specific binding (SB) ratio, MSA patients compared to control of the same brain area: 3.94 ± 0.30

## [18F]c1ccc2nc(/C=C/c3ccc(N4CCOCC4)cc3)sc2c1 [[^18F]MFSB]
[1]; dynamic PET/MR over 60 min
  crossing of the BBB: crossing of the BBB was successful
  kidney uptake: Significant kidney uptake
[1]; first 2 min
  SUV in lungs and liver: ≈ 5
αSYN pathology; 10 nM tracer, NSB with 10 µM non-radioactive compound
  SB disease/SB control, MSA1/cerebellum ctrl: 1.20
